Assay results taken from patent US12433861B2, “Compositions and methods for treating reperfusion injury or hemorrhage after recanalization therapy” (GNT Pharma Co., Ltd., priority 2020, dated 2025).
Entries after “also recorded” stand apart in the source; their conditions may differ.

Tests used:
[1] = system: adult rats; experiment: Abnormal behavior in adult rats after single dose; details: for % of rats showing abnormal behavior: Abnormal body position lying on side / % of rats showing abnormal behavior: Ataxia / % of rats showing abnormal behavior: Clenched paws / % of rats showing abnormal behavior: Decreased activity / % of rats showing abnormal behavior: Increased salivation / % of rats showing abnormal behavior: Repetitive jaw chewing / Number of rats showing abnormal behavior: Abnormal body position lying on side / Number of rats showing abnormal behavior: Ataxia / Number of rats showing abnormal behavior: Clenched paws / Number of rats showing abnormal behavior: Decreased activity / Number of rats showing abnormal behavior: Increased salivation / Number of rats showing abnormal behavior: Repetitive jaw chewing: 8 rats
[2] = system: ischemic stroke patients; details: cited from earlier work
[3] = system: healthy volunteers; details: cited from earlier work
[4] = system: acute ischemic stroke patients; details: cited from earlier work
[5] = ischemic stroke patients, selfotel (n = 281)

## C[C@]12N[C@H](Cc3ccccc31)c1ccccc12 [MK-801]
[1]; 1 mg/kg (IP), female
  % of rats showing abnormal behavior: Abnormal body position lying on side: 25%
  % of rats showing abnormal behavior: Ataxia: 75%
  % of rats showing abnormal behavior: Clenched paws: 88%
  % of rats showing abnormal behavior: Decreased activity: 100%
  % of rats showing abnormal behavior: Increased salivation: 25%
  % of rats showing abnormal behavior: Repetitive jaw chewing: 50%
  Number of rats showing abnormal behavior: Abnormal body position lying on side: 2
  Number of rats showing abnormal behavior: Ataxia: 6
  Number of rats showing abnormal behavior: Clenched paws: 7
  Number of rats showing abnormal behavior: Decreased activity: 8
  Number of rats showing abnormal behavior: Increased salivation: 2
  Number of rats showing abnormal behavior: Repetitive jaw chewing: 4
[1]; 10 mg/kg (IP), male
  % of rats showing abnormal behavior: Abnormal body position lying on side: 13%
  % of rats showing abnormal behavior: Ataxia: 38%
  % of rats showing abnormal behavior: Clenched paws: 50%
  % of rats showing abnormal behavior: Decreased activity: 100%
  % of rats showing abnormal behavior: Increased salivation: 50%
  % of rats showing abnormal behavior: Repetitive jaw chewing: 38%
  Number of rats showing abnormal behavior: Abnormal body position lying on side: 1
  Number of rats showing abnormal behavior: Ataxia: 3
  Number of rats showing abnormal behavior: Clenched paws: 5
  Number of rats showing abnormal behavior: Decreased activity: 4
  Number of rats showing abnormal behavior: Increased salivation: 5
  Number of rats showing abnormal behavior: Repetitive jaw chewing: 3
[1]; male and female rats, 1 or 10 mg/kg (IP)
  abnormal behaviors: produced abnormal behaviors including ataxia and decreased activity

## O=C(O)[C@@H]1C[C@H](CP(=O)(O)O)CCN1 (racemic) [selfotel]
[2]; 1 mg/kg
  adverse effects in stroke patients: showed hallucinations, paranoia, agitation, confusion, and delirium
[2]; [5]
  % of subjects showing abnormal behavior: Agitation: 36%
  % of subjects showing abnormal behavior: Confusion: 16%
  % of subjects showing abnormal behavior: Hallucination: 21%
  % of subjects showing abnormal behavior: Stupor: 4.3%
  Number of subjects showing abnormal behavior: Agitation: 101
  Number of subjects showing abnormal behavior: Confusion: 46
  Number of subjects showing abnormal behavior: Hallucination: 59
  Number of subjects showing abnormal behavior: Stupor: 12
  Subjects showing abnormal behavior: Delirium (yes/no): yes
  Subjects showing abnormal behavior: Paranoia (yes/no): yes
[2]; some of 281 ischemic stroke patients
  psychotic symptoms: revealed psychotic symptoms such as hallucination, paranoia, and delirium

## CCc1cccc(N(C)C(N)=Nc2cccc3ccccc23)c1 [aptiganel]
[3]; Phase 1, 94 healthy volunteers
  Drug-induced side effect: Agitation: yes
  Drug-induced side effect: Catatonia: yes
  Drug-induced side effect: Hallucination: yes
  Drug-induced side effect: Paranoia: yes
[3]; healthy volunteers (phase 1 study for 94)
  side effects / psychotic symptoms in healthy humans: caused hallucinations, paranoia, catatonia, euphoria, disinhibition, and psychomotor retardation; also recorded: psychotic symptoms such as hallucinations, paranoia, and catatonia

## rt-PA: recombinant tissue plasminogen activator, intravenous thrombolytic drug
[4]; intravenous administration, acute ischemic stroke
  increase of intracranial hemorrhagic complication: ~6.4%
[4]; intravenous, depending upon size and types of the occluded vessel
  cerebral arterial recanalization: 4-32%
